Laboratory results reported in US20240285572A1 (priority 2023, published 2024).

Key:
[1] = tested on: human patients having central serous chorioretinopathy (CSCR); assay: Central macular thickness by OCT in CSCR patients given isosorbide dinitrate; format: in vivo
Protocol: The nitric-oxide releasing agent isosorbide dinitrate was given orally at 5 mg twice per day dosage for sublingual administration for 7 days for 7 human patients (CL, WZ, XC, LL, BZ, XZ, and LS) having central serous chorioretinopathy (CSCR). Average age of the patients is 41.6 years. 5 men and 2 women were enrolled in this study.

retinal blood flow = settings: oral; glaucoma patients and diabetics; Zurakowski 1998, Weigert 2008; cited from earlier work
[2] = tested on: acute central retinal artery occlusion; settings: sublingual route; cited from earlier work

Row | Compound | Central macular OCT thickness, overall change ([1]; 7 human CSCR patients, 5 mg twice per day sublingual for 7 days, 7-10 days after treatment) | Subretinal fluid status after treatment ([1]; patient, eye OD) | Retinal blood flow (retinal blood flow) | Treatment outcome in acute central retinal artery occlusion [2]
1 | O=[N+]([O-])O[C@H]1CO[C@H]2[C@@H]1OC[C@H]2O[N+](=O)[O-] [isosorbide dinitrate, 1,4:3,6-dianhydro-2,5-di-O-nitro-D-glucitol] | generalized decrease | fluid resolved) |  | 
2 | O=[N+]([O-])OCC(CO[N+](=O)[O-])O[N+](=O)[O-] [nitroglycerin, 1,2,3-Tris(nitrooxy)propane] |  |  | retinal blood flow improves | variable success
